# Reference: patent US20230101747A1 (Schrödinger, Inc., priority 2019, published 2023)
# Biological target: T1, Full length human CDC7 protein co-expressed with DBF4 (Homo sapiens, UniProt O00311)
# T1 construct: Full length human CDC7 protein co-expressed with DBF4; purchased SignalChem (China)
# Assay: CDC7 kinase biochemical assay (ADP-Glo, PDKtide substrate)
# Conditions: 0.1 nM CDC7/DBF4, 1 uM ATP, 10 uM PDKtide, 4 h; read-out: CDC7 ADP-Glo PDKtide IC50
# Protocol: CDC7 Kinase Biochemical Assay Protocol:
# Full length human CDC7 protein co-expressed with DBF4 was purchased from SignalChem (China). CDC7 kinase activity was determined with PDKtide (SignalChem) as a substrate and by measuring ADP production using the ADP-Glo™ Kinase Assay kit (Promega) following the manufacturers instructions. The kinase reaction was performed using the following conditions: Buffer: 40 mM Tris pH 7.5, 20 mM MgCl2, 0.1 mg/ml BSA and 50 uM DTT. Final reaction mix contained 0.1 nM CDC7/DBF4, 1 uM ATP and 10 uM PDKtide. The kinase reaction time was 4 h. The ADP-Glo signal was measured using an EnVision plate reader (PerkinELmer).
# Percent inhibition of CDC7 kinase activity was calculated based on the following formula: […]
# SSample: the signal of compounds SHigh ctrl: the signal of high control (DMSO) SLow Ctrl: the signal of low control (positive control CDC7 inhibitor)
# T1 sequence (O00311 whole entry): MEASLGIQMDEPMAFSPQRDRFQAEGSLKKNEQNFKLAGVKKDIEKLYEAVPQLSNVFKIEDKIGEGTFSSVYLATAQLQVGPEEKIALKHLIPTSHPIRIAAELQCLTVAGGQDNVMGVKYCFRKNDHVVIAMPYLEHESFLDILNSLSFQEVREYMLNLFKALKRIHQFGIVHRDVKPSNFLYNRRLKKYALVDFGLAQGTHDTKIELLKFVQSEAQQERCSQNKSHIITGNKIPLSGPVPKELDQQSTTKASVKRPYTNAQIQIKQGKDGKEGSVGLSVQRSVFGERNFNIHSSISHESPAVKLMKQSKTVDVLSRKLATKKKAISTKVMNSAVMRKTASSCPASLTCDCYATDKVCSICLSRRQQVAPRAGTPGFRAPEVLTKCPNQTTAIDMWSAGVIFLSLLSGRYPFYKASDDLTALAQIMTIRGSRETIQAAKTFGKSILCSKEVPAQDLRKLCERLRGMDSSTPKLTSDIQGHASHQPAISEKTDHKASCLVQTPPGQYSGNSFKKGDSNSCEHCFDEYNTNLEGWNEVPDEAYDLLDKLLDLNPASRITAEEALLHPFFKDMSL
# T1 sequence (Q9UBU7 whole entry partner): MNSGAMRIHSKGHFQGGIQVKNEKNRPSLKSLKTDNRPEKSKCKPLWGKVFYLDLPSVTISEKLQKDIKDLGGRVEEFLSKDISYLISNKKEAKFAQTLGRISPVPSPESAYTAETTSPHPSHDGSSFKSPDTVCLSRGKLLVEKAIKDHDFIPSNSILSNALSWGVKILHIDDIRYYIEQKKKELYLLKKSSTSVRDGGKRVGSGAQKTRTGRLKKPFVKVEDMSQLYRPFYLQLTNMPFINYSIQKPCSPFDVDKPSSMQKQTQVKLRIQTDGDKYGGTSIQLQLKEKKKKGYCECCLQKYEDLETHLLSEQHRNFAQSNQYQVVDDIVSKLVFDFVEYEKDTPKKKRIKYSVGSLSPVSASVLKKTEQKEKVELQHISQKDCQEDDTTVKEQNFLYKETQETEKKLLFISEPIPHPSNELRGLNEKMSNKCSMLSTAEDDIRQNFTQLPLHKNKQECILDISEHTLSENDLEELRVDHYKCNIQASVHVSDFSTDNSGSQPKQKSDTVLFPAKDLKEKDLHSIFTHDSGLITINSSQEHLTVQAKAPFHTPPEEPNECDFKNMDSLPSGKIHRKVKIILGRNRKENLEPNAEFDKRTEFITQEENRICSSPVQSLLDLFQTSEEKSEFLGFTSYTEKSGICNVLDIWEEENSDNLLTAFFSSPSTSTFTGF
row,SMILES,IC50
1,"N#CC[C@@H]1CNC(=O)c2sc(-c3cn[nH]c3)c3c2N1CCC3 [Compound 97, (R)-2-(9-oxo-2-(1H-pyrazol-4-yl)-4,5,6,7,8,9-hexahydro-3H-1-thia-5a,8-diazabenzo[cd]azulen-6-yl)acetonitrile]",< 1 nM
2,"O=C1NC[C@@H](CC2(O)CC2)N2CCCc3c(-c4cn[nH]c4)sc1c32 [Compound 89, (9R)-9-[(1-hydroxycyclopropyl)methyl]-3-(1H-pyrazol-4-yl)-2-thia-8,11-diazatricyclo [6.4.1.0^4,13]trideca-1(13),3-dien-12-one]",< 1 nM
3,"O=C1NC(C2CC(F)(F)C2)CN2CC(F)(F)Cc3c(-c4cn[nH]c4)sc1c32 (single isomer, unassigned) [Compound 114, (R or S)-7-(3,3-difluorocyclobutyl)-4,4-difluoro-2-(1H-pyrazol-4-yl)-4,5,7,8-tetrahydro-3H-1-thia-5a,8-diazabenzo[cd]azulen-9(6H)-one]",< 1 nM
4,"O=C1NC([C@H]2[C@@H]3COC[C@@H]32)CN2CC(F)(F)Cc3c(-c4cn[nH]c4)sc1c32 (single isomer, unassigned) [Compound 124]",< 1 nM
5,"C[C@@H]1CNC(=O)c2sc(-c3ccncc3)c3c2N1C(=O)CO3 [Compound 22, (R)-6-methyl-2-(pyridin-4-yl)-7,8-dihydro-3-oxa-1-thia-5a,8-diazabenzo[cd]azulene-5,9(4H,6H)-dione]",1 to 10 nM
6,"O=C1NC[C@H](C2CCOCC2)N2CCOc3c(-c4cn[nH]c4)sc1c32 (single isomer, unassigned) [Compound 28]",> 10 nM
7,"CC1(C)NC(=O)c2sc(-c3ccncn3)c3c2N1CCCN3 [Compound 1, 5,5-dimethyl-1-(pyrimidin-4-yl)-4,5,6,7,8,9-hexahydro-3H-2-thia-4,5a,9-triazabenzo[cd]azulen-3-one]",< 1 nM

# Now from value to compound:
row,IC50,SMILES
1,< 1 nM,"O=C1N[C@@H](CO)CN2CCOc3c(-c4cn[nH]c4)sc1c32 [Compound 48, (R)-7-(hydroxymethyl)-2-(1H-pyrazol-4-yl)-4,5,7,8-tetrahydro-3-oxa-1-thia-5a,8-diazabenzo[cd]azulen-9(6H)-one]"
2,< 1 nM,"CC(C)(O)C[C@H]1CN2CC(F)(F)Cc3c(-c4cn[nH]c4)sc(c32)C(=O)N1 [Compound 132, (S)-4,4-difluoro-7-(2-hydroxy-2-methylpropyl)-2-(1H-pyrazol-4-yl)-4,5,7,8-tetrahydro-3H-1-thia-5a,8-diazabenzo[cd]azulen-9(6H)-one]"
3,1 to 10 nM,"C[C@H]1CN2C(=O)CCc3c(-c4cn[nH]c4)sc(c32)C(=O)N1 [Compound 29, (S)-7-methyl-2-(1H-pyrazol-4-yl)-3,4,7,8-tetrahydro-5H-1-thia-5a,8-diazabenzo[cd]azulene-5,9(6H)-dione]"
4,< 1 nM,"O=C1NC(C2CCCCO2)CN2CCCc3c(-c4cn[nH]c4)sc1c32 (single isomer, unassigned) [Compound 107]"
5,1 to 10 nM,"COC[C@H]1[C@@H](C2CCC2)NC(=O)c2sc(-c3cn[nH]c3)c3c2N1CCO3 (single isomer, unassigned) [Compound 98]"
6,< 1 nM,"COC[C@@H]1CNC(=O)c2sc(-c3ccncc3)c3c2N1CCO3 [Compound 105, (S)-6-(methoxymethyl)-2-(pyridin-4-yl)-4,5,7,8-tetrahydro-3-oxa-1-thia-5a,8-diazabenzo[cd]azulen-9(6H)-one]"
7,< 1 nM,"COC[C@@H]1CNC(=O)c2sc(-c3cn[nH]c3)c3c2N1CC(F)(F)O3 [Compound 133, (S)-4,4-difluoro-6-(methoxymethyl)-2-(1H-pyrazol-4-yl)-4,5,7,8-tetrahydro-3-oxa-1-thia-5a,8-diazabenzo[cd]azulen-9(6H)-one]"
8,1 to 10 nM,"COC[C@@H]1CN(C)C(=O)c2sc(-c3cn[nH]c3)c3c2N1CCO3 [Compound 56, (S)-6-(methoxymethyl)-8-methyl-2-(1H-pyrazol-4-yl)-4,5,7,8-tetrahydro-3-oxa-1-thia-5a,8-diazabenzo[cd]azulen-9(6H)-one]"
